From PubChem BioAssay (NCI)
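1) Cells in 96-well plates. 2) Compound, 48 h, 5 concentrations. 3) Linear interpolation between surrounding doses. 4) Unreached endpoint = highest concentration. GI50 is the concentration that inhibits growth by half. Definition used: TGI = concentration required for complete inhibition of growth.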

Experiments:
Assay in all cases: DTP human tumour cell line panel, 48 h
[1] = system: 786-0 renal
[2] = system: A498 renal
[3] = system: A549 NSCLC
[4] = system: ACHN renal
[5] = system: BT-549 breast
[6] = system: CAKI-1 renal
[7] = system: DU-145 prostate
[8] = system: EKVX NSCLC
[9] = system: HCC-2998 colon
[10] = system: HCT-116 colon
[11] = system: HCT-15 colon
[12] = system: HOP-62 NSCLC
[13] = system: HOP-92 NSCLC
[14] = system: HS 578T breast
[15] = system: IGROV1 ovarian
[16] = system: KM12 colon
[17] = system: M14 melanoma
[18] = system: MALME-3M melanoma
[19] = system: MCF7 breast
[20] = system: MDA-MB-435
[21] = system: NCI-H226 lung
[22] = system: NCI-H23 lung
[23] = system: NCI-H460 lung
[24] = system: NCI-H522 lung
[25] = system: NCI/ADR-RES ovarian
[26] = system: OVCAR-3 ovarian
[27] = system: OVCAR-4 ovarian
[28] = system: OVCAR-5 ovarian
[29] = system: OVCAR-8 ovarian
[30] = system: RPMI-8226 leukemia
[31] = system: RXF 393 renal
[32] = system: SF-268 CNS
[33] = system: SF-295 CNS
[34] = system: SF-539 CNS
[35] = system: SK-MEL-2 melanoma
[36] = system: SK-OV-3 ovarian
[37] = system: SN12C renal
[38] = system: SR leukemia
[39] = system: TK-10 renal
[40] = system: U251 CNS
[41] = system: UACC-257 melanoma
[42] = system: UO-31 renal

In the case of `CN(C)c1ccc(C(O)C2=CC(=O)c3ccccc3C2=O)cc1` (stereo not drawn), the GI50 [1] is reported as 14.4 µM, the TGI [1] is reported as 34.6 µM and the GI50 [2] is reported as 15.1 µM. For the same molecule, the TGI [2] was 63 µM, the GI50 [3] was 30.3 µM and the TGI [3] was greater than 100 µM. It also gave a GI50 [4] of 3.69 µM, a TGI [4] of 31.8 µM and a GI50 [5] of 2.58 µM. It also gave a TGI [5] of 6.25 µM, a GI50 [6] of 7.87 µM and a TGI [6] of 32.1 µM. For the same molecule, the GI50 [7] was 2.23 µM, the TGI [7] was 6.27 µM and the GI50 [8] was 5.37 µM. The TGI [8] was 92.9 µM, the GI50 [9] was 17 µM and the TGI [9] was 38.7 µM. The GI50 [10] was 17.8 µM, the TGI [10] was 37 µM and the GI50 [11] was 4.3 µM. It also gave a TGI [11] greater than 100 µM, a GI50 [12] of 23.1 µM and a TGI [12] of 64.7 µM. It also gave a GI50 [13] of 1.56 µM, a TGI [13] of 4.16 µM and a GI50 [14] of 0.509 µM. For the same molecule, the TGI [14] was greater than 100 µM, the GI50 [15] was 1.94 µM and the TGI [15] was 4.52 µM. The GI50 [16] was 13.7 µM, the TGI [16] was 91.4 µM and the GI50 [17] was 15.4 µM. The TGI [17] was 29.4 µM, the GI50 [18] was 24.2 µM and the TGI [18] was 56.7 µM. It also gave a GI50 [19] of 4.7 µM, a TGI [19] greater than 100 µM and a GI50 [20] of 5.94 µM. For the same molecule, the TGI [20] was 28 µM, the GI50 [21] was 3.01 µM and the TGI [21] was 14.2 µM. It also gave a GI50 [22] of 27.2 µM, a TGI [22] of 97.5 µM and a GI50 [23] of 51.9 µM. It also gave a TGI [23] greater than 100 µM, a GI50 [24] of 2.82 µM and a TGI [24] of 9.2 µM. The GI50 [25] was greater than 100 µM, the TGI [25] was greater than 100 µM and the GI50 [26] was 2.75 µM. It also gave a GI50 [27] of 4.51 µM, a TGI [27] greater than 100 µM and a GI50 [28] of 22.4 µM. For the same molecule, the TGI [28] was 52.4 µM, the GI50 [29] was 11.6 µM and the TGI [29] was 32.8 µM. For the same molecule, the GI50 [30] was 3.69 µM, the TGI [30] was 66.8 µM and the GI50 [31] was 4.29 µM. It also gave a TGI [31] of 56.6 µM, a GI50 [32] greater than 100 µM and a TGI [32] greater than 100 µM. It also gave a GI50 [33] of 25.1 µM, a TGI [33] of 93.3 µM and a GI50 [34] of 2.6 µM. For the same molecule, the TGI [34] was 6.08 µM, the GI50 [35] was 2.88 µM and the TGI [35] was 11.7 µM. It also gave a GI50 [36] of 3.07 µM, a TGI [36] of 15.5 µM and a GI50 [37] of 1.56 µM. The TGI [37] was 4.54 µM, the GI50 [38] was 1.88 µM and the TGI [38] was 4.49 µM. For the same molecule, the GI50 [39] was 12.1 µM, the TGI [39] was 44.3 µM and the GI50 [40] was 1.74 µM. The TGI [40] was greater than 100 µM, the GI50 [41] was 18.4 µM and the TGI [41] was 41 µM. The GI50 [42] was 6.46 µM and the TGI [42] was 19.3 µM.
